Values quoted from earlier work in US20260174880A1, “ELECTROPHILIC REACTIVE LINKERS FOR LABELING OF POLYPEPTIDES AND METHODS OF USE THEREOF” (The Brigham and Women's Hospital, Inc., priority 2023, published 2026).
Where two headings read alike, the source gives them in different places.

How the values were obtained:
NF- B Pathway = settings: at 5 μM
Recombinant PKC = biological target: T1, Recombinant PKC (Homo sapiens, UniProt Q05513); settings: for % … 62.5 μM (cell…): at 62.5 μM
T1 sequence (Q05513 1-592): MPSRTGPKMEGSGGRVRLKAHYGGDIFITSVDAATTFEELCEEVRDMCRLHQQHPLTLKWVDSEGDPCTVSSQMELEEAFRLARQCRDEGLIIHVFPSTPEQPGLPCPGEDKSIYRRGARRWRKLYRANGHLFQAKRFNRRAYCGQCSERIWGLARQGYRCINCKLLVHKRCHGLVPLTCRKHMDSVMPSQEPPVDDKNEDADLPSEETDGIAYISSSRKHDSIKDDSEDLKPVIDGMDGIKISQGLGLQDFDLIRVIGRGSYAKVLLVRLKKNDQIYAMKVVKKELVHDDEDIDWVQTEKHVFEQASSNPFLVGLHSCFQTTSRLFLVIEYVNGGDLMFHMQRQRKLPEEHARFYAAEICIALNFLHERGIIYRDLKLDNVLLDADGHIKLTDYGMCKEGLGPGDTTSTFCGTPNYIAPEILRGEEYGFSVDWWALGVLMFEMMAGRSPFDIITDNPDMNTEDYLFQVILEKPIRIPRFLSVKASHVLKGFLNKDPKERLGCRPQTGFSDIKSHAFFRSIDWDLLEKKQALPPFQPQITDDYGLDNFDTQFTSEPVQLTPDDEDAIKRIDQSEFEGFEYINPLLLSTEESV

AKT1 = AKT1 (Homo sapiens, UniProt P31749); settings: the 24th table, the 25th table
Sequence of AKT1 (P31749 whole entry): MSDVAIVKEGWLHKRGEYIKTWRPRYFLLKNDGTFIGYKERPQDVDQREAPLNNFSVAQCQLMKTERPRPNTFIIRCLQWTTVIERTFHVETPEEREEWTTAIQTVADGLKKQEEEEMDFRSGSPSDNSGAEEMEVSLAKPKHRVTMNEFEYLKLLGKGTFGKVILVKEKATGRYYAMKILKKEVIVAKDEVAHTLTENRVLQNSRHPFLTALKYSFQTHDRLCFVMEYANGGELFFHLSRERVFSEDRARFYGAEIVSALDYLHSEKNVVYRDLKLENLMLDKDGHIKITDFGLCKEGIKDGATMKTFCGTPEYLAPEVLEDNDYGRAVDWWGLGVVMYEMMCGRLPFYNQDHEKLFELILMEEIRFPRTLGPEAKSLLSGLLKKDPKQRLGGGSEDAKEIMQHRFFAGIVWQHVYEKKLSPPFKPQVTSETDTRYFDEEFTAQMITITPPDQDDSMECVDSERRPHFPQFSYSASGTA

PDK1 [1] = biological target: T2, PDK1 (Homo sapiens, UniProt O15530); settings: for T…: the 35th table c7; for …G: the 35th table c8
T2 sequence (O15530 1-556): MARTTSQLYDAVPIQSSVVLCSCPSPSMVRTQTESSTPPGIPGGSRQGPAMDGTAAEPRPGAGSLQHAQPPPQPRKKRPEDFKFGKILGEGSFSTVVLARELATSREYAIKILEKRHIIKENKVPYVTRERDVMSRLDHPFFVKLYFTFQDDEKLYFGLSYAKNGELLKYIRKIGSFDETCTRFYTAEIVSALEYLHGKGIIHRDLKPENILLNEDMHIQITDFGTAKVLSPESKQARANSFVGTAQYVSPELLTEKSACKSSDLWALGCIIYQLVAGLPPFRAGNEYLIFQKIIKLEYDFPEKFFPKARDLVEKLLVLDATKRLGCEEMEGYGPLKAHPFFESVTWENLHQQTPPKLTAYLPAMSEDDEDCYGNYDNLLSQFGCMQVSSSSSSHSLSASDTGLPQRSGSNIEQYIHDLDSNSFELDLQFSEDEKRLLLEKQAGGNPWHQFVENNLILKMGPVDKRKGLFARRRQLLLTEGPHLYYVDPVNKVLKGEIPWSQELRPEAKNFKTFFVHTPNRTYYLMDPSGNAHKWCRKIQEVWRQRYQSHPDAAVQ

PDK1 [2] = biological target: T2, PDK1; settings: the 35th table; read-out: AC…
Akt = settings: the 26th table
[3] = test system: NF-κB dependent transcription
MEK2 = MEK2 (Homo sapiens, UniProt P36507)
Sequence of MEK2 (P36507 whole entry): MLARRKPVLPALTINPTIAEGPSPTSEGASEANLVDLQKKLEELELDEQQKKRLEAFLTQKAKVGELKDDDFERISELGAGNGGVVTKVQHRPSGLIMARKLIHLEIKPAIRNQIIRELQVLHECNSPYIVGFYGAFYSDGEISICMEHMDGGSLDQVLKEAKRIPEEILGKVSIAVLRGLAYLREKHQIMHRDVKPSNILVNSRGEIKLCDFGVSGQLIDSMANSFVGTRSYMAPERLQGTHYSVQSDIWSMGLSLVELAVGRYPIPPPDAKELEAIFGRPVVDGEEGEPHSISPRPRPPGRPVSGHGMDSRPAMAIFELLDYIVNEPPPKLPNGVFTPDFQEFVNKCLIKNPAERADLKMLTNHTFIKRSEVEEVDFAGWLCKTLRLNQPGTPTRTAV

MEK1 = MEK1 (Homo sapiens, UniProt Q02750)
Sequence of MEK1 (Q02750 whole entry): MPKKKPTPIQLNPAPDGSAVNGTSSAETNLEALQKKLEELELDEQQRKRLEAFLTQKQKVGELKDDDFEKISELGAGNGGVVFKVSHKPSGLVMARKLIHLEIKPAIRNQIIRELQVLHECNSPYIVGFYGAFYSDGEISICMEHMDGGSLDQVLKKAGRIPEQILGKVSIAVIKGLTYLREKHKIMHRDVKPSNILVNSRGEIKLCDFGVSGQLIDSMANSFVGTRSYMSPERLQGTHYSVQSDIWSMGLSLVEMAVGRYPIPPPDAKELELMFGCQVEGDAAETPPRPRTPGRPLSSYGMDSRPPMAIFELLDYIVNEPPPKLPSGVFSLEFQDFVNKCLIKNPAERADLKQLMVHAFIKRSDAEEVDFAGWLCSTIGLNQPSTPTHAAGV

other kinases = settings: at 1000 nM EAI045
[4] = test system: Molt-4 (T cell acute lymphoblastic leukemia) xenografts; settings: SCID mice
PDK1 [5] = biological target: T2, PDK1
MERS-COV = settings: in vitro
[6] = not given; remark: listed apart in the source
Aurora A = biological target: T3, Aurora A (Homo sapiens, UniProt O14965); settings: the 30th table
T3 sequence (O14965 1-403): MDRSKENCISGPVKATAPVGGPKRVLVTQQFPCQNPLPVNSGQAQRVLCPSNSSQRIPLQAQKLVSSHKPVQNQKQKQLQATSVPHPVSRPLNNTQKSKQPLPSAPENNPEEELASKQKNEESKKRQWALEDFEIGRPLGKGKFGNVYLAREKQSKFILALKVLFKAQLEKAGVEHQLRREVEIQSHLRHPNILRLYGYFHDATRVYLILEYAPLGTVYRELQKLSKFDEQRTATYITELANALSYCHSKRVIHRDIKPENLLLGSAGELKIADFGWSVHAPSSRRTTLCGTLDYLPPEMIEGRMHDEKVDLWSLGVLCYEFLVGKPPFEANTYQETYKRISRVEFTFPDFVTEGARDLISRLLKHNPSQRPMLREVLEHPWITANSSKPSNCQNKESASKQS

[7] = test system: breast carcinoma, prostate carcinoma, colon carcinoma and pancreatic carcinoma xenografts; settings: in vivo
p38α MAPK = p38α MAPK (Homo sapiens, UniProt Q16539)
Sequence of p38α MAPK (Q16539 whole entry): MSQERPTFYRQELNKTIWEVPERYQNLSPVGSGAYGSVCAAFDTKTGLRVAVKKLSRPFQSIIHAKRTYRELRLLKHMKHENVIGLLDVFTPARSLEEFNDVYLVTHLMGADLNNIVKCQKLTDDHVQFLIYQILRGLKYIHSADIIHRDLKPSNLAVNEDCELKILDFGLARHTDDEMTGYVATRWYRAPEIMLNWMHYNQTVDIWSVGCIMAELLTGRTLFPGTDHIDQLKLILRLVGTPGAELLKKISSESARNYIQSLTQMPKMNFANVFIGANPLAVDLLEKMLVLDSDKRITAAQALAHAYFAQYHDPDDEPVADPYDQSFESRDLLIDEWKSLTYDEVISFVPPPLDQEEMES

CC(C)(C)C1=NN(c2ccc(Cl)cc2)C(c2ccc(O)cc2)C1 (centres unmarked) [1a]
% … 5 μM (NF…, U… cells) (NF- B Pathway): 75.1%

CC(C)(C)C1=NN(c2ccc(Br)cc2)C(c2ccc(O)cc2)C1 (centres unmarked) [1c]
% … 62.5 μM (cell…) (Recombinant PKC): 93.2%

CC(C)(C)C1=NN(c2ccc(C(F)(F)F)cc2)C(c2ccc(O)cc2)C1 (centres unmarked) [1d]
% … 62.5 μM (cell…) (Recombinant PKC): 94.2%

Cc1ccc(N2N=C(C(C)(C)C)CC2c2ccc(O)cc2)cc1 (centres unmarked) [1e]
% … 5 μM (NF…, U… cells) (NF- B Pathway): 62.9%

CC(C)(C)C1=NN(c2ccc(C(=O)O)cc2)C(c2ccc(O)cc2)C1 (centres unmarked) [1g]
% … 5 μM (NF…, U… cells) (NF- B Pathway): 40.7%

CC(C)(C)C1=NN(c2cccc(Cl)c2)C(c2ccc(O)cc2)C1 (centres unmarked) [1h]
% … 5 μM (NF…, U… cells) (NF- B Pathway): 64.6%
IC50 (Recombinant PKC): 3.2 µM
% … 62.5 μM (cell…) (Recombinant PKC): 96.8%

CC(C)(C)C1=NN(c2cccc(C(F)(F)F)c2)C(c2ccc(O)cc2)C1 (centres unmarked) [1j]
% … 62.5 μM (cell…) (Recombinant PKC): 96.1%

Cc1cccc(N2N=C(C(C)(C)C)CC2c2ccc(O)cc2)c1 (centres unmarked) [1k]
% … 5 μM (NF…, U… cells) (NF- B Pathway): 71.7%
% … 62.5 μM (cell…) (Recombinant PKC): 91.7%

CC(C)(C)C1=NN(c2ccc(Cl)cc2Cl)C(c2ccc(O)cc2)C1 (centres unmarked) [1n]
% … 62.5 μM (cell…) (Recombinant PKC): 71.0%

Cc1ccc(N2N=C(C(C)(C)C)CC2c2ccc(O)cc2)c(C)c1 (centres unmarked) [1p]
% … 5 μM (NF…, U… cells) (NF- B Pathway): 41.5%
% … 62.5 μM (cell…) (Recombinant PKC): 59.9%

CC(C)(C)c1ccc(-n2c(-c3ccncc3)nc3cccnc32)cc1 [3a]
IC50 (AKT1): > 300 µM

COc1ccccc1Cn1c(-c2cccnc2N)nc2cccnc21 [3c]
IC50 (AKT1): 38 µM

NCc1ccc(-n2c(-c3cccnc3)nc3cccnc32)cc1 [5b]
IC50 (AKT1): 8.8 µM

O=C(O)/C=C(/CCc1ccc(Cl)c(Cl)c1)c1ccccc1 [7Z]
…H… (PDK1 [1]; the 35th table c6): -3.71 kcal/mol
T… (PDK1 [1]): 2.80 kcal/mol
…G (PDK1 [1]): -6.56 kcal/mol
…H… (PDK1 [1]; the 35th table c9): 56.6%
EC50 (PDK1 [2]): 2.8 µM

O=C(O)/C=C(/CCc1ccc(Cl)cc1Cl)c1ccccc1 [8Z]
…H… (PDK1 [1]; the 35th table c6): -2.08 kcal/mol
T… (PDK1 [1]): 4.93 kcal/mol
…G (PDK1 [1]): -7.07 kcal/mol
…H… (PDK1 [1]; the 35th table c9): 29.5%
EC50 (PDK1 [2]): 4.7 µM

CC(=O)NCc1ccc(-n2c(-c3cccnc3N)nc3cccnc32)cc1 [8d]
IC50 (AKT1): 0.81 µM

Nc1ncccc1-c1nc2cccnc2n1-c1cccc(CNC(=O)c2ccccc2)c1 [8g]
IC50 (AKT1): 13 µM

Nc1ncccc1-c1nc2cccnc2n1-c1ccc(CNCc2ccccc2)cc1 [8h]
IC50 (AKT1): 0.26 µM

O=C(O)/C=C(/CCc1ccc2ccccc2c1)c1ccccc1 [12Z]
T… (PDK1 [1]): 1.96 kcal/mol
…G (PDK1 [1]): -6.87 kcal/mol
…H… (PDK1 [1]; the 35th table c9): 58.3%
EC50 (PDK1 [2]): 8 µM

Nc1ncccc1-c1nc2cc(C3CCCC3)cnc2n1-c1ccc(CNC(=O)c2ccccc2)cc1 [12d]
IC50 (Akt): > 100 µM

Nc1ncccc1-c1nc2cc(-c3cccnc3)cnc2n1-c1ccc(CNC(=O)c2cccc(F)c2)cc1 [12g]
IC50 (Akt): 0.4 µM

Cc1ccc2nc(NCCN)c3ncc(C)n3c2c1 [BMS-345541]
NF-κB dependent transcription in mice [3]: block NF-κB dependent transcription

Cn1cnc2c(F)c(Nc3ccc(Br)cc3F)c(C(=O)NOCCO)cc21 [Binimetinib]
pIC50 (MEK2): 7.9
pIC50 (MEK1): 7.9

O=C(Nc1nccs1)C(c1cc(F)ccc1O)N1Cc2ccccc2C1=O (centres unmarked) [EAI045]
inhibition of any other kinases in screening panels (other kinases): ≤ 20%

Nc1ccc(/C=C/C(=O)NCc2cc3cc(-c4ccc(C(=O)N5CCC(F)(F)CC5)cc4)cc(-c4ccc(F)cc4)c3o2)cn1 [KPT-9274]
Molt-4 xenografts [4]: induces shrinkage

O=S(=O)(Nc1nc2ccc(Cl)cc2s1)c1cc2ccccc2s1 [RS2]
Kd (PDK1 [5]): 9 µM

CO[C@H]1C[C@@H]2CC[C@@H](C)[C@@](O)(O2)C(=O)C(=O)N2CCCC[C@H]2C(=O)O[C@H]([C@H](C)C[C@@H]2CC[C@@H](O)[C@H](OC)C2)CC(=O)[C@H](C)/C=C(\C)[C@@H](O)[C@@H](OC)C(=O)[C@H](C)C[C@H](C)/C=C/C=C/C=C/1C [Sirolimus]
MERS-COV infection of Huh7 cells (MERS-COV): inhibits MERS-COV infection

CC(=O)Nc1cccc(-n2c(=O)n(C3CC3)c(=O)c3c(Nc4ccc(I)cc4F)n(C)c(=O)c(C)c32)c1 [Trametinib]
Absorption/distribution of an oral dose of trametinib tablet: 72%

O=C(O)c1cc(-c2cccc(C(F)(F)F)c2)nc2ccccc12 [compound 34]
Sol (pH 6.5) [6]: 190 μg/mL
IC50 (C26): 0.00033 µM
IC50 (Aurora A): 26.5 µM
Ki (Aurora A; read-out: Calculated K…): 507 µM

O=C1NC(=O)[C@@H](c2cn3c4c(cccc24)CCC3)[C@@H]1c1c[nH]c2ccccc12 [tivantinib]
growth of carcinoma xenografts [7]: inhibition of growth

Skepinone-B
residence times (p38α MAPK): 150 s
